Experimental data: US20020004519A1, “METHOD FOR REDUCING CHLORIDE SECETION BY INTESTINAL EPITHLIAL CELLS IN SITU” (priority 1998, published 2002)

What was measured:
[1] = system: T84 cells; assay: Electrogenic Cl- secretion (short circuit current, Isc) in confluent T84 monolayers; type: cell-based, human; details: for Inhibition of cAMP and Ca++ elicited Cl- secretion: comparison of compounds tested
[2] = system: cAMP- and Ca++-sensitive basolateral K+ channels of T84 cells; assay: Basolateral K+ conductance in T84 monolayers permeabilized apically with amphotericin B; type: cell-based, human; details: for Time course of K+ transport after treatment with forskolin and carbachol: forskolin 10 μM (cAMP agonist), carbachol 100 μM (Ca++ agonist)
Protocol: Selective mebrane Permeabilization and Measurement of Potassium Conductance of the Basolateral Membrane. The basolateral potassium conductance was measured using the technique developed by Dawson and co-workers. A potassium gradient (mucosal to serosal) was first established across the monolayer using asymmetric mucosal and serosal buffers containing K^+ as the sole permeant ion. The addition of amphotericin B (20 μM) to the mucosal reservoir forms conductive pores in the apical membrane, and thus removes all resistance to transepithelial potassium movement across this membrane. Thus, under the conditions of the experiment, in which the monolayer is short circuited (i.e., voltage-clamped at zero potential) and the transepithehal potassium gradient is constant, the amphotericin-dependent Isc becomes a measure of the rate of the transepithelial potassium flux across basolateral membranes. Changes in short circuit current (Isc), then represent changes in basolateral K^+ conductances (gK). Isc and K^+ conductances were measured using calomel electrodes, 3M KCI-agar bridges, and a voltage clamp (University of Iowa, Iowa City). To generate a voltage-current channel relationships, currents were elicited by 1 sec test potentials from −80 to +80 in 10 mV increments in the asymmetrical high K^+ gluconate solution. Calculation of basolateral membrane K^+ permeability: Membrane permeabilities were calculated according to the formula:
^pK=(cm/s)=^JK(mM/cm^2·s)/Δ[K^+](mM/cm^3)
where Δ [K^+] is equal to the difference in K^+ concentration (135 mM) between the asymmetric apical and basolateral bathing solutions. Maximal Isc values were converted into K^+ fluxes by dividing by the Faraday constant F (96,500 coulombs/mol) as previously described (Huflejt et al., J. Clin. Invest. 93: 1900-1910 (1994)).
Basolateral K+ transport was examined in T84 monolayers permeabilized apically by pretreatment with amphotericin B. Apical and basolateral buffers contained K+ as the sole permeant ion. All studies were performed with a 135 mM basolaterally directed K+ gradient. This method has been utilized previously to examine both Cl− and K+ transport in T84 cells and HT29-Cl0.16E cells. Briefly, ion conductances in the luminal or basolateral membranes of confluent T84 cell monolayers can be assessed separately by selectively permeabilizing the apical or basolateral membrane using the ionophore amphotericin B. This artificially removes all electrical resistance to ion transport across the plasma membrane containing pores formed by amphotericin B. As a result, the intact contralateral plasma membrane becomes rate limiting for transepithelial ion transport. Agonist-dependent changes in ion conductances can be assessed directly either as transepithelial short circuit current (Isc) in the presence of established ion gradients, or as transepithelial conductance (G) in the presence of established transepithelial potentials.

[3] = system: rabbit colonic mucosa; assay: Ussing chamber studies using rabbit colonic mucosa; details: 30 μM; forskolin 10 μM
Protocol: 4 male, New Zealand rabbits (2.5 kg) were anesthetized by an intravenous injection of pentobarbital (0.5 ml/kg). A 15 cm length of distal colon was removed and opened longitudinally. […] The volume of fluid on each side of the mucosa was 7 ml. Potential difference and Isc were monitored continuously and registered every 10 minutes.

[4] = system: apical membrane Cl- channels of T84 cells; assay: Apical Cl- conductance in T84 monolayers permeabilized basolaterally with amphotericin B; type: cell-based, human; details: forskolin 10 μM; symmetrical Cl- 142 mM
[5] = system: basolateral K+ channels of T84 cells; assay: 86Rb efflux from T84 monolayers as indicator of basolateral K+ channel activity; type: cell-based, human
Protocol: J. Physiol (Cell Physiol. 28):[…]-[…] (1990). […] One ml samples were obtained and replaced from the basolateral reservoir. […] Finally, the cell monolayer was rinsed, cut with its support from the polystyrene ring, and the residual cell-associated radioactivity was determined. Monolayers were maintained at 37° C. in room air throughout the study. ^86Rb was counted by scintillation counting and normalized to percent total uptake as previously described ([…], et al, Am. J. Physiol. (Cell Physiol. 28):[…]-[…] (1990).

[6] = system: apical membrane Cl- channels of T84 cells; assay: 125I efflux from T84 monolayers as indicator of apical Cl- channel activity; type: cell-based, human
Protocol: J. Physiol. (Cell Physiol. 28):[…]-[…] (1990). […] After washing twice in fresh HBSS, 0.5 ml samples were obtained every two min from the apical reservoir and replaced with fresh HBSS. […] Finally, the cell monolayer was rinsed, cut with its support from the polystyrene ring, and the residual cell-associated radioactivity was determined. Monolayers were maintained at 37° C. in room air throughout the study. ^125I was counted by gamma counting and normalized to percent total uptake as previously described ([…], et al, Am. J. Physiol. (Cell Physiol 28):[…]-[…] (1990).

[7] = system: cholera toxin-induced intestinal fluid secretion; type: in vivo, Balb/C mice
[8] = system: basolateral NaK2Cl cotransporters of T84 cells; assay: Bumetanide-sensitive 86Rb uptake in T84 monolayers; type: cell-based, human
Protocol: Confluent monolayers on 5 cm^2 Transwell inserts were incubated for 30 minutes in HBSS at 37° C. […] Monolayers were cut from their inserts, placed into scintillation vials, and counted using standard methods.

[9] = 33 μM during final 30 min of preincubation

## Clc1ccc(COC(Cn2ccnc2)c2ccc(Cl)cc2Cl)cc1 (centres unmarked) [econazole]
[1]
  Inhibition of cAMP and Ca++ elicited Cl- secretion: effective at inhibiting chloride secretion

## Clc1ccc(COC(Cn2ccnc2)c2ccc(Cl)cc2Cl)c(Cl)c1 (centres unmarked) [miconazole]
[1]
  Inhibition of cAMP and Ca++ elicited Cl- secretion: effective at inhibiting chloride secretion

## charybdotoxin
[1]
  Cl- secretory response (Isc as percentage of control) to the Ca++-dependent agonist carbachol: strongly inhibited
  Cl- secretory response (Isc as percentage of control) to the cAMP mediated agonist VIP: minimal affects
[2]; carbachol first, pretreatment with charybdotoxin 100 nM
  Inhibition of the carbachol-induced Ca++ IK: 50%
[2]; charybdotoxin 100 nM
  Effect on K+ transport induced by subsequent addition of forskolin: no detectable effect

## CC(=O)N1CCN(c2ccc(OCC3COC(Cn4ccnc4)(c4ccc(Cl)cc4Cl)O3)cc2)CC1 (centres unmarked) [ketoconazole]
[1]
  Inhibition of cAMP and Ca++ elicited Cl- secretion: effective at inhibiting chloride secretion

## Clc1ccccc1C(c1ccccc1)(c1ccccc1)n1ccnc1 [clotrimazole]
[1]
  Cl- secretory response (Isc as percentage of control) to the Ca++-dependent agonist carbachol: inhibited
  Cl- secretory response (Isc as percentage of control) to the cAMP mediated agonist VIP: inhibited
  Inhibition of cAMP and Ca++ elicited Cl- secretion: most potent inhibitor tested
[1]; 33 μM preincubation, 5 μM VIP, 10 μM forskolin or 3 mM 8Br-cAMP
  Secretory response to agonists of sequential steps in the cAMP signalling cascade: inhibited
[1]; 33 μM pretreatment, carbachol 100 μM, thapsigargin 5 μM or ionomycin 10 μM
  Cl- secretory response to Ca++-dependent agonists: inhibited strongly
[1]; Homo sapiens, T84, read-out: IC50 for inhibiting the secretory response to E. Coli heat-stabile toxin
  IC50: 15 µM
[1]; after 60 min recovery in the presence of 0.01 mg/ml bovine serum albumin, n=4
  Reversibility of inhibition of Cl- secretion: 96±2%
[1]; basolateral versus apical application
  Apparent potency of inhibition at a fixed time point by side of application: greater when applied basolaterally than apically
[1]; low doses (=10^-7 or less), VIP or carbachol
  Potentiation of the Cl- secretory responses to either agonist at low doses: 5-10%
[3]
  Time course of forskolin induced Isc: inhibited strongly
[2]
  Time course of K+ transport after treatment with forskolin and carbachol: significantly inhibited
[4]
  Forskolin- or thapsigargin-stimulated Cl- conductances: no detectable effect
[5]; [9]
  86Rb loading of the cells: did not alter
[5]; 33 μM, VIP 5 μM
  Reduction of the rate constant for VIP-stimulated 86Rb efflux: 87%
[5]; T84 cells in the presence of VIP or thapsigargin, compared to cells not treated, FIG. 2
  Baseline and Ca++ stimulated 86RB efflux: significantly inhibited
[5]; monolayers treated with clotrimazole 33 μM, VIP 5 μM, n=2 in triplicate, untreated 0.0465
  Rate constant for VIP-stimulated 86Rb efflux: 0.0062 % uptake/minute
[5]; monolayers treated with clotrimazole 33 μM, thapsigargin 5 μM, n=2, untreated 0.048
  Rate constant for thapsigargin-stimulated 86Rb efflux: 0.011 % uptake/minute
[6]; [9]
  125I loading of the cells: did not alter
[6]; 33 μM pretreatment, VIP
  Time course of 125I efflux from monolayers treated with VIP: little or no effect
[6]; monolayers treated with clotrimazole (33 μM), VIP, n=2 in duplicate, untreated 0.0645
  Rate constant for 125I efflux: 0.0637 % uptake/minute
[7]; 5 hours
  Reduction of intestinal fluid secretion induced by cholera toxin: 86%
[7]; mouse, in vivo
  Intestinal secretion in the absence of cholera toxin: no effect
[8]; 33 μM for 30 min, VIP, mean±SEM, n=6
  Reduction of the total amount of 86Rb uptake: 53.6±5.8%
[8]; 33 μM for 30 min, bumetanide 10 μM
  Effect on the fractional component of 86Rb uptake that was bumetanide-sensitive: no effect
[8]; 0.5 h, 33 µM
  Bumetanide-sensitive fraction of 86Rb uptake: 88+3.2 % total uptake

## [Ba+2].[Cl-].[Cl-] [BaCl2]
[1]
  Cl- secretory response (Isc as percentage of control) to the Ca++-dependent agonist carbachol: no apparent affect
  Cl- secretory response (Isc as percentage of control) to the cAMP mediated agonist VIP: strongly inhibited
[2]; carbachol 100 μM, same monolayers, BaCl2 3 mM
  Effect on K+ transport induced by subsequent addition of carbachol: no detectable effect
[2]; forskolin 10 μM, BaCl2 3 mM in basolateral reservoirs
  Inhibition of the cAMP-sensitive IK elicited by forskolin: greater than 70%

## OC(c1ccccc1)(c1ccccc1)c1ccccc1Cl [2-chlorophenyl-bis-phenyl methanol]
[1]
  Inhibition of cAMP and Ca++ elicited Cl- secretion: effective at inhibiting chloride secretion
[2]
  Time course of K+ transport after treatment with forskolin and carbachol: Nearly identical results
